Experimental data reported in PubChem BioAssay (NCI).
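Compound exposure: 48 hours, 5 concentrations, 96-well plates. GI50 is the concentration that inhibits growth by half. Definition used: TGI = concentration required for complete inhibition of growth.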

Columns and labels:
Assay in all cases: inhibition of tumour cell growth, NCI panel, 48 h
HL-60(TB) leukemia = system: HL-60(TB) leukemia
OVCAR-3 ovarian = system: OVCAR-3 ovarian
K-562 leukemia = system: K-562 leukemia
UO-31 renal = system: UO-31 renal
MDA-MB-231 breast = system: MDA-MB-231 breast
SNB-75 CNS = system: SNB-75 CNS
HOP-62 NSCLC = system: HOP-62 NSCLC
SF-295 CNS = system: SF-295 CNS

## c1cncc(-c2nc3ccccc3s2)c1
HL-60(TB) leukemia
  GI50: > 100 µM
  TGI: > 100 µM
OVCAR-3 ovarian
  GI50: > 100 µM
  TGI: > 100 µM
K-562 leukemia
  GI50: > 100 µM
  TGI: > 100 µM
UO-31 renal
  GI50: 29.5 µM
  TGI: > 100 µM
MDA-MB-231 breast
  GI50: > 100 µM
  TGI: > 100 µM
SNB-75 CNS
  GI50: 58.4 µM
  TGI: > 100 µM
HOP-62 NSCLC
  GI50: > 100 µM
  TGI: > 100 µM
SF-295 CNS
  GI50: > 100 µM
  TGI: > 100 µM

## N#Cc1ccc(C2C3=C(CCCC3=O)OC3=C2C(=O)c2ccccc2C3=O)cc1 (stereo unspecified)
HL-60(TB) leukemia
  GI50: 0.259 µM
  TGI: 1.27 µM
OVCAR-3 ovarian
  GI50: 0.27 µM
  TGI: 0.711 µM
UO-31 renal
  GI50: 1.67 µM
  TGI: 3.14 µM
MDA-MB-231 breast
  GI50: 0.447 µM
  TGI: 1.83 µM
SNB-75 CNS
  GI50: 1.35 µM
  TGI: 2.65 µM
HOP-62 NSCLC
  GI50: 1.95 µM
  TGI: 3.78 µM
SF-295 CNS
  GI50: 1.83 µM
  TGI: 3.9 µM

## O=C(/C=C/c1cccc([N+](=O)[O-])c1)c1ccc(O)c(CN2CCN(c3cc4c(cc3F)c(=O)c(C(=O)O)cn4C3CC3)CC2)c1
HL-60(TB) leukemia
  GI50: 2.24 µM
  TGI: 6.58 µM
OVCAR-3 ovarian
  GI50: 1.77 µM
  TGI: 3.41 µM
K-562 leukemia
  GI50: 0.404 µM
  TGI: > 100 µM
UO-31 renal
  GI50: 1.29 µM
  TGI: 2.67 µM
MDA-MB-231 breast
  GI50: 1.89 µM
  TGI: 4.02 µM
SNB-75 CNS
  GI50: 1.22 µM
  TGI: 2.51 µM
HOP-62 NSCLC
  GI50: 3.47 µM
  TGI: 16.8 µM
SF-295 CNS
  GI50: 1.88 µM
  TGI: 3.9 µM

## COc1ccc(SC2c3ccc(C)cc3Oc3nc(N)c(C#N)c(N)c32)cc1 (stereo unspecified)
HL-60(TB) leukemia
  GI50: 1.86 µM
  TGI: 3.99 µM
OVCAR-3 ovarian
  GI50: 1.75 µM
  TGI: 3.13 µM
K-562 leukemia
  GI50: 2.66 µM
  TGI: 8.44 µM
UO-31 renal
  GI50: 1.39 µM
  TGI: 2.68 µM
MDA-MB-231 breast
  GI50: 1.81 µM
  TGI: 3.28 µM
SNB-75 CNS
  GI50: 1.46 µM
  TGI: 3.21 µM
HOP-62 NSCLC
  GI50: 1.71 µM
  TGI: 3.18 µM
SF-295 CNS
  GI50: 1.55 µM
  TGI: 2.89 µM

## COc1ccc(-c2nn(-c3cccc(Cl)c3)cc2-c2c(C#N)c(=O)n3[nH]c(-c4ccc(C)cc4)nc3c2C#N)cc1
HL-60(TB) leukemia
  GI50: 8.33 µM
  TGI: 29.6 µM
OVCAR-3 ovarian
  GI50: 6.52 µM
  TGI: 13.7 µM
K-562 leukemia
  GI50: 1.43 µM
  TGI: > 50 µM
UO-31 renal
  GI50: 3.39 µM
  TGI: 11.2 µM
MDA-MB-231 breast
  GI50: 1.16 µM
  TGI: 5.25 µM
SNB-75 CNS
  GI50: 0.828 µM
  TGI: 2.4 µM
HOP-62 NSCLC
  GI50: 0.884 µM
  TGI: 2.19 µM
SF-295 CNS
  GI50: 1.2 µM
  TGI: 4.14 µM

## Cc1cc([N+](=O)[O-])ccc1NS(=O)(=O)c1cc(Cl)ccc1Cl
HL-60(TB) leukemia
  GI50: 3.13 µM
  TGI: 12.8 µM
OVCAR-3 ovarian
  GI50: 3.24 µM
  TGI: > 46.6 µM
K-562 leukemia
  GI50: 3.56 µM
  TGI: > 100 µM
UO-31 renal
  GI50: 2.97 µM
  TGI: 17 µM
MDA-MB-231 breast
  GI50: 3.36 µM
  TGI: 16.2 µM
SNB-75 CNS
  GI50: 2.98 µM
  TGI: 38.3 µM
HOP-62 NSCLC
  GI50: 3.21 µM
  TGI: 16.1 µM
SF-295 CNS
  GI50: 2.46 µM
  TGI: 9.26 µM

## O=c1oc(-c2ccccc2)cc2cccc(O)c12
HL-60(TB) leukemia
  GI50: 63.5 µM
  TGI: > 100 µM
OVCAR-3 ovarian
  GI50: 25.2 µM
  TGI: 85.8 µM
K-562 leukemia
  GI50: > 67.3 µM
  TGI: > 100 µM
UO-31 renal
  GI50: 72 µM
  TGI: > 100 µM
MDA-MB-231 breast
  GI50: 29.2 µM
  TGI: > 85.7 µM
SNB-75 CNS
  GI50: 24.4 µM
  TGI: > 62.6 µM
HOP-62 NSCLC
  GI50: 19.5 µM
  TGI: 40.9 µM
SF-295 CNS
  GI50: 28.3 µM
  TGI: > 83.9 µM

## CCn1c2ccc(C(=O)CCCN(C)C)cc2c2cc(C(=O)CCCN(C)C)ccc21
HL-60(TB) leukemia
  TGI: 3.78 µM
OVCAR-3 ovarian
  TGI: 6.72 µM
K-562 leukemia
  TGI: 32.3 µM
UO-31 renal
  TGI: 12.8 µM
MDA-MB-231 breast
  TGI: 3.37 µM
SNB-75 CNS
  TGI: 11.4 µM
HOP-62 NSCLC
  TGI: 3.48 µM
SF-295 CNS
  TGI: 14.5 µM

## Cc1cc(Oc2cnc(=O)[nH]c2)cs1
HL-60(TB) leukemia
  TGI: > 100 µM
OVCAR-3 ovarian
  TGI: > 100 µM
K-562 leukemia
  TGI: > 100 µM
UO-31 renal
  TGI: > 100 µM
MDA-MB-231 breast
  TGI: > 100 µM
SNB-75 CNS
  TGI: > 100 µM
HOP-62 NSCLC
  TGI: > 100 µM
SF-295 CNS
  TGI: > 100 µM

## O=C1NC(=O)C(c2ccc(Cl)cc2)=C1Nc1ccc(Cl)c(C(=O)O)c1
HL-60(TB) leukemia
  GI50: > 25 µM
  TGI: > 25 µM
OVCAR-3 ovarian
  GI50: > 25 µM
  TGI: > 25 µM
K-562 leukemia
  GI50: > 25 µM
  TGI: > 25 µM
UO-31 renal
  GI50: > 25 µM
  TGI: > 25 µM
MDA-MB-231 breast
  GI50: > 25 µM
  TGI: > 25 µM
SNB-75 CNS
  GI50: > 25 µM
  TGI: > 25 µM
HOP-62 NSCLC
  GI50: > 25 µM
  TGI: > 25 µM
SF-295 CNS
  GI50: > 25 µM
  TGI: > 25 µM

## COc1ccc2nc(NCN3C(=O)c4ccccc4C3=O)sc2c1
HL-60(TB) leukemia
  TGI: > 100 µM
OVCAR-3 ovarian
  TGI: > 100 µM
K-562 leukemia
  TGI: > 100 µM
UO-31 renal
  TGI: > 100 µM
MDA-MB-231 breast
  TGI: > 100 µM
SNB-75 CNS
  TGI: > 100 µM
HOP-62 NSCLC
  TGI: > 100 µM
SF-295 CNS
  TGI: > 100 µM

## O=C1c2cc(-c3ccccc3)ccc2-c2c1c1ccc([N+](=O)[O-])cc1c(=O)n2CCCBr
OVCAR-3 ovarian
  GI50: > 50 µM
  TGI: > 50 µM
K-562 leukemia
  TGI: > 12.2 µM
UO-31 renal
  GI50: > 50 µM
  TGI: > 50 µM
MDA-MB-231 breast
  GI50: > 38.9 µM
  TGI: > 50 µM
SNB-75 CNS
  GI50: 15.1 µM
  TGI: > 26.2 µM
HOP-62 NSCLC
  GI50: > 30.2 µM
  TGI: > 50 µM
SF-295 CNS
  GI50: > 37.4 µM
  TGI: > 50 µM

## CN1CCN(C(=O)c2c(NC(=O)NS(=O)(=O)c3ccccc3)sc3c2CCCCC3)CC1
HL-60(TB) leukemia
  GI50: 48.2 µM
  TGI: > 100 µM
OVCAR-3 ovarian
  GI50: 39.6 µM
  TGI: > 100 µM
K-562 leukemia
  GI50: 33.6 µM
  TGI: > 100 µM
UO-31 renal
  GI50: > 100 µM
  TGI: > 100 µM
MDA-MB-231 breast
  GI50: 27.5 µM
  TGI: 79.6 µM
SF-295 CNS
  GI50: 57.2 µM
  TGI: > 100 µM

## CCN(CC)CCCC(C)Nc1c2ccc(Cl)cc2nc2cc(OC)c(OC)cc12 (stereo unspecified)
HL-60(TB) leukemia
  GI50: 2.81 µM
  TGI: 9.31 µM
OVCAR-3 ovarian
  GI50: 1.98 µM
  TGI: 7.63 µM
K-562 leukemia
  GI50: 2.4 µM
  TGI: 8.77 µM
UO-31 renal
  GI50: 1.43 µM
  TGI: 2.89 µM
MDA-MB-231 breast
  GI50: 1.52 µM
  TGI: 3.97 µM
SNB-75 CNS
  GI50: 1.31 µM
  TGI: 2.6 µM
SF-295 CNS
  GI50: 1.5 µM
  TGI: 3.24 µM

## Cc1ccc(C(=O)/C(=C\c2ccc([N+](=O)[O-])cc2)S(=O)Cc2ccc(F)cc2)cc1 (stereo unspecified)
HL-60(TB) leukemia
  GI50: 1.67 µM
  TGI: 5.02 µM
OVCAR-3 ovarian
  GI50: 1.57 µM
  TGI: 2.96 µM
UO-31 renal
  GI50: 1.36 µM
  TGI: 2.69 µM
MDA-MB-231 breast
  GI50: 1.83 µM
  TGI: 3.68 µM
SNB-75 CNS
  GI50: 1.47 µM
  TGI: 3.1 µM
HOP-62 NSCLC
  GI50: 2.35 µM
  TGI: 6.3 µM
SF-295 CNS
  GI50: 1.94 µM
  TGI: 5.05 µM

## O=C(O)C1C(=O)Oc2c(cccc2[N+](=O)[O-])C1O (stereo unspecified)
HL-60(TB) leukemia
  TGI: > 100 µM
OVCAR-3 ovarian
  TGI: > 100 µM
K-562 leukemia
  TGI: > 100 µM
MDA-MB-231 breast
  TGI: > 100 µM
SNB-75 CNS
  TGI: > 100 µM
HOP-62 NSCLC
  TGI: > 100 µM
SF-295 CNS
  TGI: > 100 µM

## CCCCCCCC(=O)OCC1OC(n2cc(F)c(=O)[nH]c2=O)C(NC(=O)OCc2ccccc2)C(O)C1O (stereo unspecified)
HL-60(TB) leukemia
  TGI: > 100 µM
OVCAR-3 ovarian
  TGI: > 100 µM
K-562 leukemia
  TGI: > 100 µM
UO-31 renal
  TGI: > 100 µM
SNB-75 CNS
  TGI: > 100 µM
HOP-62 NSCLC
  TGI: > 100 µM
SF-295 CNS
  TGI: > 100 µM

## O=C1C(Cl)=C(Nc2cccc(O)c2)C(=O)N1Cc1ccc(Cl)cc1
HL-60(TB) leukemia
  GI50: 0.993 µM
  TGI: 11 µM
OVCAR-3 ovarian
  GI50: 1.43 µM
  TGI: 5.86 µM
K-562 leukemia
  GI50: 1.36 µM
  TGI: 4.52 µM
UO-31 renal
  GI50: 10.3 µM
  TGI: > 100 µM
MDA-MB-231 breast
  GI50: 1.1 µM
  TGI: 5.64 µM
HOP-62 NSCLC
  GI50: 4.55 µM
  TGI: 23 µM
SF-295 CNS
  GI50: 2.68 µM
  TGI: 18.5 µM
